# Where two headings read alike, the source gives them in different places.
# Tested on: GM01896 cells (MPS II dermal fibroblasts)
# Experiment: Assay 1: MPS cellular assay, MPS II (heparan sulfate disaccharide biomarkers by LC-MS)
# Format: cell-based, human
# Settings: Assay 1 for MPS II, heparan sulfate disaccharide biomarkers (I2a4, I2a6, I2S0 and/or I2S6), read-out: IC50 Range
# Experimental: Dermal fibroblasts from humans with an MPS disorder and from healthy donors are grown. Cells are expanded and kept in culture for analysis. Human foreskin fibroblasts can be obtained from the American Type Culture Collection (CRL-1634). Human dermal fibroblasts derived from biopsies of individuals are purchased from Coriell Institute: clinically healthy individuals, GM00408, GM00409, GM00200 (clinically unaffected sibling of an individual with metachromatic leukodystrophy), GM05659, GM08398, and GM15871 (clinically unaffected sibling of an individual with unclassified Ehlers-Danlos syndrome); heterozygous MPS I carriers, GM01392, GM01393 and GM0003; homozygous individuals affected with MPS I, GM06214, GM11495, GM00034, GM01391 and GM01256; individuals with MPS II, GM01896, GM03181, GM00615 and GM00298; individuals with MPS IIIA, GM00879, GM00643, GM00934, GM06110 and GM00629; MPS IIIB, GM01426; MPS IIIC, GM05157; MPS IIID, GM05093; and MPS VII, GM00121. All cells are grown in DMEM containing 50 U ml-1 penicillin, […] ml-1 streptomycin, 2 mM glutamine and 10% FBS. Cells are seeded on 15-cm-diameter tissue culture dishes, grown to confluence and maintained in culture for analysis. Sulfamidase activity in cell extracts is measured with 4-methylumbelliferyl-α-D-N-sulfoglucosaminide according the vendors instructions substituting Tris-acetate buffer (pH 6.5; Moscerdam).
# Cells are treated with a compound of the invention at a concentration at or below 30 μM for 4 to 21 days. Cell monolayers are washed with phosphate buffered saline and detached by treatment with GIBCO trypsin-EDTA solution (Invitrogen). After centrifugation, the supernatant is removed and the cells are lysed in 0.5 mL of 0.1 N sodium hydroxide. The amount of protein is determined by bicinchoninic acid (BCA assay, Thermo Scientific). GAGs are isolated by anion exchange chromatography and digested with glycosaminoglycan lyases (heparinases I, II, and III, IBEX).
# Enzymatically depolymerized GAG preparations are differentially mass labeled by reductive amination with [^12C6]aniline. Briefly, heparan sulfate disaccharides (1-10 pmol) are dried down in a centrifugal evaporator and reacted with [^12C6]aniline or [^13C6]aniline (15 μL, 165 μmol) and 15 μL of 1 M NaCNBH3 (Sigma-Aldrich) freshly prepared in dimethylsulfoxide/acetic acid (7:3, v/v) is added to each sample. Reactions are carried out at 37° C. for 16 h and then dried in a centrifugal evaporator. Unsubstituted amines are reacted with propionic anhydride (Sigma-Aldrich). Dried samples are reconstituted in 20 μL of 50% methanol, and 3 μL of propionic anhydride (Sigma-Aldrich, 23.3 μmol) is added. Reactions are carried out at ˜23° C. for 2 h. Acylated disaccharides are subsequently aniline tagged as described above. Each sample is mixed with commercially available standard unsaturated disaccharides (Seikagaku), standard N-sulfoglucosamine, glucosamine-6-sulfate, N-acetylgalactosamine-4-sulfate and N-acetylgalactosamine-6-sulfate (Sigma-Aldrich), and/or synthesized α-L-idopyranosyluronate-(1,4)-2-N-acetyl-2-deoxy-α/β-D-glucopyranoside (I0S0). All standards are tagged with [^13C6]aniline (Sigma-Aldrich). Samples are then analyzed by LC-MS using an LTQ Orbitrap Discovery electrospray ionization mass spectrometer (Thermo Scientific) equipped with quaternary HPLC pump (Finnigan Surveyor MS pump) and a reverse-phase capillary column as described in J. Biol. Chem. 2008, 283(48), 33674.
# MPS II: Assay 1, as described above, was used to determine activity for MPS II using GM01896 cells. […] Extracted ion chromatograms were obtained. Cell viability was monitored using alamar blue or ATP quantification. IC50's were calculated using curve fitting within the ChemInnovation CBIS database system.
SMILES,"IC50 (Homo sapiens, Fibroblast) [µM]",IC50 [µM]
"Cc1nn(C)c2cc(-c3cc(Nc4ccc5c(ccn5C)c4)nc(N4CCOCC4)n3)ccc12 [[6-(1,3-dimethyl(1H-indazol-6-yl))-2-morpholin-4-ylpyrimidin-4-yl](1-methylindol-5-yl)amine]",0.5 to 1,
"Cn1ncc2ccc(-c3cc(Nc4ccc(-c5nc[nH]n5)cc4)nc(N4CCOCC4)n3)cc21 [[6-(1-methyl(1H-indazol-6-yl))-2-morpholin-4-ylpyrimidin-4-yl](4-(1,2,4-triazolyl)phenyl)amine]",0.5 to 1,
"Cc1nnc(-c2ccc(Nc3cc(-c4ccc5c(CCN6CCOCC6)nn(C)c5c4)nc(N4CCOCC4)n3)cc2)[nH]1 [[4-(5-methyl(4H-1,2,4-triazol-3-yl))phenyl]{6-[1-methyl-3-(2-morpholin-4-ylethyl)(1H-indazol-6-yl)]-2-morpholin-4-ylpyrimidin-4-yl}amine]",< 0.5,
Cn1ncc2ccc(-c3cc(Nc4ccc(-c5ncc(C(F)(F)F)[nH]5)cc4)nc(N4CCOCC4)n3)cc21 [[6-(1-methyl(1H-indazol-6-yl))-2-morpholin-4-ylpyrimidin-4-yl]{4-[5-(trifluoromethyl)imidazol-2-yl]phenyl}amine],0.5 to 1,
Cc1nn(CCN(C)C)c2cc(-c3cc(Nc4ccc(Cl)cc4)nc(N4CCOCC4)n3)ccc12 [[2-(6-{6-[(4-chlorophenyl)amino]-2-morpholin-4-ylpyrimidin-4-yl}-3-methyl(1H-indazoly))ethyl]dimethylamine],,1 to 5
Cn1ncc2ccc(-c3cc(Nc4ccc(-c5ccn[nH]5)cc4)nc(N4CCOCC4)n3)cc21 [[6-(1-methyl(1H-indazol-6-yl))-2-morpholin-4-ylpyrimidin-4-yl](4-pyrazol-5-ylphenyl)amine],< 0.5,
Cn1nc(CCCCO)c2ccc(-c3cc(Nc4ccc(Cl)cc4)nc(N4CCOCC4)n3)cc21 [4-(6-{6-[(4-chlorophenyl)amino]-2-morpholin-4-ylpyrimidin-4-yl}-1-methyl-1H-indazol-3-yl)butan-1-ol],1 to 5,
"Cn1ncc2ccc(-c3cc(Nc4ccc(-c5ncco5)cc4)nc(N4CCOCC4)n3)cc21 [[6-(1-methyl(1H-indazol-6-yl))-2-morpholin-4-ylpyrimidin-4-yl](4-(1,3-oxazol-2-yl)phenyl)amine]",0.5 to 1,
CNC(=O)c1ccc(Nc2cc(-c3ccc4[nH]ncc4c3)nc(N3CCOCC3)n2)cn1 [{5-[(6-(1H-indazol-5-yl)-2-morpholin-4-ylpyrimidin-4-yl)amino](2-pyridyl)}-N-methylcarboxamide],0.5 to 1,
CNC(=O)c1ccc(Nc2cc(-c3ccc4c(c3)ncn4C3CC3)nc(N3CCOCC3)n2)cc1 [(4-{[6-(1-cyclopropylbenzimidazol-5-yl)-2-morpholin-4-ylpyrimidin-4-yl]amino}phenyl)-N-methylcarboxamide],0.5 to 1,
"Cn1c(=O)n(C)c2cc(-c3cc(Nc4ccc(Cl)cc4)nc(N4CCOCC4)n3)ccc21 [5-{6-[(4-chlorophenyl)amino]-2-morpholin-4-ylpyrimidin-4-yl}-1,3-dimethyl-3-hydrobenzimidazol-2-one]",,< 0.5
Cc1nc2ccc(-c3cc(Nc4ccc(Cl)cc4)nc(N4CCOCC4)n3)cc2n1CCCN1CCOCC1 [(4-chlorophenyl){6-[2-methyl-1-(3-morpholin-4-ylpropyl)benzimidazol-6-yl]-2-morpholin-4-ylpyrimidin-4-yl}amine],1 to 5,
"Cc1nn(C)c2cc(-c3cc(Nc4ccc(-c5ccn(C)c5)cc4)nc(N4CCOCC4)n3)ccc12 [[6-(1,3-dimethyl(1H-indazol-6-yl))-2-morpholin-4-ylpyrimidin-4-yl][4-(1-methylpyrrol-3-yl)phenyl]amine]",1 to 5,
Cn1ncc2ccc(-c3cc(Nc4ccc([S+](C)[O-])cc4)nc(N4CCOCC4)n3)cc21 (stereo not drawn) [1-{[6-(1-methyl(1H-indazol-6-yl))-2-morpholin-4-ylpyrimidin-4-yl]amino}-4-(methylsulfinyl)benzene],1 to 5,
Cc1nc2ccc(-c3cc(Nc4ccc(Cl)cc4)nc(N4CCOCC4)n3)cc2n1CCCN1CCCC1 [(4-chlorophenyl){6-[2-methyl-1-(3-pyrrolidinylpropyl)benzimidazol-6-yl]-2-morpholin-4-ylpyrimidin-4-yl}amine],0.5 to 1,
Cn1cc2cc(Nc3cc(-c4ccc5cnn(C)c5c4)nc(N4CCOCC4)n3)ccc2n1 [[6-(1-methyl(1H-indazol-6-yl))-2-morpholin-4-ylpyrimidin-4-yl](2-methyl(2H-indazol-5-yl))amine],1 to 5,
"Cn1ncc2ccc(-c3cc(Nc4ccc(-c5nnc(C6CC6)[nH]5)cc4)nc(N4CCOCC4)n3)cc21 [[4-(5-cyclopropyl(4H-1,2,4-triazol-3-yl))phenyl][6-(1-methyl(1H-indazol-6-yl))-2-morpholin-4-ylpyrimidin-4-yl]amine]",< 0.5,
Cn1ccc2ccc(Nc3cc(-c4ccc5c(CCCN)nn(C)c5c4)nc(N4CCOCC4)n3)cc21 [{6-[3-(3-aminopropyl)-1-methyl(1H-indazol-6-yl)]-2-morpholin-4-ylpyrimidin-4-yl}(1-methylindol-6-yl)amine],< 0.5,
"Cc1nncn1-c1ccc(Nc2cc(-c3ccc4cnn(C)c4c3)nc(N3CCOCC3)n2)cc1 [[4-(3-methyl(1,2,4-triazol-4-yl))phenyl][6-(1-methyl(1H-indazol-6-yl))-2-morpholin-4-ylpyrimidin-4-yl]amine]",0.5 to 1,
Cn1cnc2ccc(-c3cc(Nc4ccc(C(=O)NC5CC5)cc4)nc(N4CCOCC4)n3)cc21 [N-cyclopropyl(4-{[6-(1-methylbenzimidazol-6-yl)-2-morpholin-4-ylpyrimidin-4-yl]amino}phenyl)carboxamide],1 to 5,
Cn1cnc2ccc(-c3cc(Nc4ccc(Cl)cc4)nc(N4CCOCC4)n3)cc21 [(4-chlorophenyl)[6-(1-methylbenzimidazol-6-yl)-2-morpholin-4-ylpyrimidin-4-yl]amine],< 0.5,
CN1CCN(c2nn(C)c3cc(-c4cc(Nc5ccc(Cl)cc5)nc(N5CCOCC5)n4)ccc23)CC1 [(4-chlorophenyl){6-[1-methyl-3-(4-methylpiperazinyl)(1H-indazol-6-yl)]-2-morpholin-4-ylpyrimidin-4-yl}amine],1 to 5,
Clc1ccc(Nc2cc(-c3ccc4c(cnn4CCCN4CCOCC4)c3)nc(N3CCOCC3)n2)cc1 [(4-chlorophenyl){2-morpholin-4-yl-6-[1-(3-morpholin-4-ylpropyl)(1H-indazol-5-yl)]pyrimidin-4-yl}amine],1 to 5,
CN(C)CCCn1ncc2ccc(-c3cc(Nc4ccc(Cl)cc4)nc(N4CCOCC4)n3)cc21 [[3-(6-{6-[(4-chlorophenyl)amino]-2-morpholin-4-ylpyrimidin-4-yl}(1H-indazolyl))propyl]dimethylamine],1 to 5,
"Cc1nn(C)c2cc(-c3cc(Nc4ccc5nn(C)cc5c4)nc(N4CCOCC4)n3)ccc12 [[6-(1,3-dimethyl(1H-indazol-6-yl))-2-morpholin-4-ylpyrimidin-4-yl](2-methyl(2H-indazol-5-yl))amine]",1 to 5,
CNC(=O)c1ccc(Nc2cc(-c3ccc4nc[nH]c4c3)nc(N3CCOCC3)n2)cn1 [{5-[(6-benzimidazol-6-yl-2-morpholin-4-ylpyrimidin-4-yl)amino](2-pyridyl)}-N-methylcarboxamide],1 to 5,
Cn1nc(CCN2CCOCC2)c2ccc(-c3cc(Nc4ccc(Cl)cc4)nc(N4CCOCC4)n3)cc21 [(4-chlorophenyl){6-[1-methyl-3-(2-morpholin-4-ylethyl)(1H-indazol-6-yl)]-2-morpholin-4-ylpyrimidin-4-yl}amine],0.5 to 1,
